Data on 24 compounds can be found in US20190389843A1, “PYRROLE mTORC INHIBITORS AND USES THEREOF” (Navitor Pharmaceuticals, Inc., priority 2016, published 2019).

As usually defined, the IC50 is the concentration needed to halve the response being measured.

Where a name gives a salt, the structure may show the parent alone. Bounds are passed on as bounds.

The subject of assay [1] is pS6K1 in MCF7 (measure of mTORC1 activity). Description: AlphaLISA Ultra pS6K1 assay. The assay is classed as cell-based. Particulars: Homo sapiens, MCF7, 2 h, MCF-7 cells, 2 hours compound incubation. On the procedure: (§1) Assay Protocol: • 1. […] 12,000˜16,000 cells will be seeded in 36 μL medium per well. • 2. Change the culture medium with fresh medium and incubate for another 2 hours. • 3. Add 12 μL (4λ) compounds into the cell plate by HAMILTON. Final DMSO concentration is 0.5%. Incubate for 2 hours. • 4. Aspirate 38 μL by HAMILTON, 10 μL rest per well. • 5. Add 10 μL 2× lysis buffer using HAMILTON; total volume in wells is 20 μL. Allow cells to shake for 30 min. Cover plate by plastic foil and store plate at −80° C. up to analysis. • 6. […] Add 5 ul acceptor beads into assay plate and incubation for 2 hours • 8. Add 5 ul donor beads and incubation for 2 hours • 9. Count the plate by EnSpire Multimode Plate Reader
On the technique in general: Alpha assays give light when donor and acceptor beads are brought close together.

Assay [2] concerns pAKT in MCF7 (measure of mTORC2 activity). As to the kind of experiment: AlphaLISA Ultra pAKT assay. The assay is classed as cell-based. Particulars: Homo sapiens, MCF7, 2 h, MCF-7 cells, 2 hours compound incubation. On the procedure:
as §1, with “16,000˜20,000” for “12,000˜16,000”, “(4×)” for “(4λ)”

For the compound `Cc1c(CN2CCCN(c3ccccc3Cl)CC2)cc(C(=O)N2CCN(c3ccc(F)cc3)C[C@@H]2C)n1C` [Example I-47, (S)-(4-((4-(2-chlorophenyl)-1,4-diazepan-1-yl)methyl)-1,5-dimethyl-1H-pyrrol-2-yl)(4-(4-fluorophenyl)-2-methylpiperazin-1-yl)methanone], the IC50 in assay [1] is 1000 to 3000 nM; in assay [2] it was > 10000 nM.
In the case of `Cc1c(CN2CCN(c3ccccc3Cl)CC2)cc(C(=O)N2CCn3nc(-c4ccccc4)cc3C2)n1C` [Example I-81, (4-((4-(2-Chlorophenyl)piperazin-1-yl)methyl)-1,5-dimethyl-1H-pyrrol-2-yl)(2-phenyl-6,7-dihydropyrazolo[1,5-a]pyrazin-5(4H)-yl)methanone 2,2,2-trifluoroacetate], the IC50 in assay [1] is 1000 to 3000 nM; in assay [2], > 10000 nM.
Taken in the same sequence, the figures for `Cc1c(CN2CCN(c3ccccc3C#N)CC2)cc(C(=O)N2CCN(c3ncccc3C#N)CC2)n1C` [Example I-56] were 10 to 1000 nM and > 3000 nM.
As for `Cc1c(CN2CCN(c3ccccc3Cl)CC2)cc(C(=O)N2CCN(c3cccc(C#N)c3)C[C@@H]2C)n1C` [Example I-120, (S)-3-(4-(4-((4-(2-chlorophenyl)piperazin-1-yl)methyl)-1,5-dimethyl-1H-pyrrole-2-carbonyl)-3-methylpiperazin-1-yl)benzonitrile], the IC50 in assay [1] is 10 to 1000 nM; in assay [2] it was > 1000 nM.
With `COCCn1cc(CN2CCN(c3ccccc3Cl)CC2)cc1C(=O)N1CCN(c2ccccc2)CC1` [Example I-152], the 50% inhibitory concentration (IC50) in assay [1] was 1000 to 3000 nM; in assay [2] it was > 10000 nM.
The corresponding values for `C[C@H]1CN(c2cc(F)c(F)c(F)c2)CCN1C(=O)c1cc(CN2CCN(c3ccccc3Cl)CC2)cn1C` [Example I-88, (S)-(4-((4-(2-chlorophenyl)piperazin-1-yl)methyl)-1-methyl-1H-pyrrol-2-yl)(2-methyl-4-(3,4,5-trifluorophenyl)piperazin-1-yl)methanone] are 1000 to 3000 nM and > 10000 nM.
On to `Cc1c(CN2CCN(c3ccccc3Cl)CC2)cc(C(=O)N2CCN(c3cccc(Cl)c3)C[C@@H]2C)n1C` [Example I-112, (S)-(4-(3-chlorophenyl)-2-methylpiperazin-1-yl)(4-((4-(2-chlorophenyl)piperazin-1-yl)methyl)-1,5-dimethyl-1H-pyrrol-2-yl)methanone], for which the results for the IC50 in assay [1] and in assay [2] were 10 to 1000 nM and > 3000 nM, respectively.
Consider `Cc1c(CN2CCN(c3ncccc3Cl)CC2)cc(C(=O)N2CCN(c3cc(F)c(F)cc3C#N)CC2)n1C` [Example I-3], for which the half-inhibitory concentration (IC50) in assay [1] was 10 to 1000 nM; in assay [2], > 10000 nM.
Take `Cn1cc(CN2CCN(c3ncccc3Cl)CC2)cc1C(=O)N1CCN(c2ccccc2)CC1` [Example I-119, (4-((4-(3-chloropyridin-2-yl)piperazin-1-yl)methyl)-1-methyl-1H-pyrrol-2-yl)(4-phenylpiperazin-1-yl)methanone]: the results for the 50% inhibitory concentration (IC50) in assay [1] and in assay [2] were 1000 to 3000 nM and > 3000 nM, respectively.
For the compound `C[C@H]1CN(c2cccc(F)c2C#N)CCN1C(=O)c1cc(CN2CCN(c3ccccc3Cl)CC2)cn1C` [Example I-101, (S)-2-(4-(4-((4-(2-chlorophenyl)piperazin-1-yl)methyl)-1-methyl-1H-pyrrole-2-carbonyl)-3-methylpiperazin-1-yl)-6-fluorobenzonitrile], the IC50 in assay [1] is 10 to 1000 nM; in assay [2], > 5000 nM.
The corresponding values for `Cc1c(CN2CCN(c3ncccc3Cl)CC2)cc(C(=O)N2CCN(c3cccc(C#N)c3)C[C@@H]2C)n1C` [Example I-99, (S)-3-(4-(4-((4-(3-chloropyridin-2-yl)piperazin-1-yl)methyl)-1,5-dimethyl-1H-pyrrole-2-carbonyl)-3-methylpiperazin-1-yl)benzonitrile] are 10 to 1000 nM and > 3000 nM.
Turning to `Cn1cc(CN2CCN(c3ccccc3C#N)CC2)cc1C(=O)N1CCN(c2ccc(F)cc2)CC1` [Example I-73], the results for the IC50 in assay [1] and in assay [2] were 3000 to 10000 nM and > 10000 nM, respectively.
The corresponding values for `Cn1c(C(=O)N2CCN(c3ccccc3)CC2)cc(CN2CCN(c3ccccc3Cl)CC2)c1C#N` [Example I-36] are 10 to 1000 nM and > 10000 nM.
In the case of `CCCCn1cc(CN2CCN(c3ccccc3Cl)CC2)cc1C(=O)N1CCN(c2ccccc2)CC1` [Example I-146], the values for the concentration for half-maximal inhibition (IC50) in assay [1] and in assay [2] were 3000 to 10000 nM and > 10000 nM, respectively.
For `COCCCn1cc(CN2CCN(c3ccccc3Cl)CC2)cc1C(=O)N1CCN(c2ccccc2)CC1` [Example I-145], the results for the IC50 in assay [1] and in assay [2] were 3000 to 10000 nM and > 10000 nM, respectively.
Taken in the same sequence, the figures for `Cc1c(CN2CCN(c3ccccc3Cl)CC2)cc(C(=O)N2CCN(c3cc(Cl)ccn3)CC2)n1C` [Example I-71] were 10 to 1000 nM and > 3000 nM.
Taken in the same sequence, the figures for `Cc1c(CN2CCN(c3ccccc3Cl)CC2)cc(C(=O)N2CCN(c3cccc(CCCN)c3)C[C@@H]2C)n1C` [Example I-30, (S)-(4-(3-(3-aminopropyl)phenyl)-2-methylpiperazin-1-yl)(4-((4-(2-chlorophenyl)piperazin-1-yl)methyl)-1,5-dimethyl-1H-pyrrol-2-yl)methanone trifluoroacetate salt] were 3000 to 10000 nM and > 10000 nM.
For `O=C(c1cc(CN2CCN(c3ccccc3Cl)CC2)cn1CCCOC1CCCCO1)N1CCN(c2ccccc2)CC1` (stereo not drawn) [Example I-147], the results for the IC50 in assay [1] and in assay [2] were 3000 to 10000 nM and > 10000 nM, respectively.
Turning to `O=C(c1cc(CN2CCN(c3ccccc3Cl)CC2)cn1CC(F)(F)F)N1CCN(c2ccccc2)CC1` [Example I-114, (4-((4-(2-Chlorophenyl)piperazin-1-yl)methyl)-1-(2,2,2-trifluoroethyl)-1H-pyrrol-2-yl)(4-phenylpiperazin-1-yl)methanone trifluoroacetate salt], the half-maximal inhibitory concentration (IC50) in assay [1] is 1000 to 3000 nM; in assay [2] it was > 10000 nM.
The corresponding values for `COc1ccnc(N2CCN(C(=O)c3cc(CN4CCN(c5ccccc5C#N)CC4)c(C)n3C)CC2)c1` [Example I-61] are 10 to 1000 nM and > 3000 nM.
Take `Cc1c(CN2CCN(c3ccccc3C#N)CC2)cc(C(=O)N2CCN(c3cccnn3)CC2)n1C` [Example I-16]: the IC50 in assay [1] was 1000 to 3000 nM; in assay [2], > 10000 nM.
Regarding `Cc1c(CN2CCN(c3ccccc3Cl)CC2)cc(C(=O)N2CCN(c3cc(F)c(F)c(F)c3)CC2)n1C` [Example I-111, (4-((4-(2-Chlorophenyl)piperazin-1-yl)methyl)-1,5-dimethyl-1H-pyrrol-2-yl)(4-(3,4,5-trifluorophenyl)piperazin-1-yl)methanone], the half-maximal inhibitory concentration (IC50) in assay [1] is 10 to 1000 nM; in assay [2], > 3000 nM.
As for `Cc1c(CN2CCN(c3ccccc3Cl)CC2)cc(C(=O)N2CCN(c3cccc(F)c3C#N)CC2)n1C` [Example I-107, 2-(4-(4-((4-(2-chlorophenyl)piperazin-1-yl)methyl)-1,5-dimethyl-1H-pyrrole-2-carbonyl)piperazin-1-yl)-6-fluorobenzonitrile], the concentration for half-maximal inhibition (IC50) is 10 to 1000 nM in assay [1] and > 3000 nM in assay [2].
The corresponding values for `Cc1c(CN2CCN(c3ncccc3Cl)CC2)cc(C(=O)N2CCN(c3ccc(F)c(F)c3)C[C@@H]2C)n1C` [Example I-78, (S)-(4-((4-(3-chloropyridin-2-yl)piperazin-1-yl)methyl)-1,5-dimethyl-1H-pyrrol-2-yl)(4-(3,4-difluorophenyl)-2-methylpiperazin-1-yl)methanone] are 10 to 1000 nM and > 3000 nM.
